Assay [1] has as its target RAC-alpha serine/threonine-protein kinase (Homo sapiens, UniProt P31749). The assay is described as follows: Inhibition of full length human AKT1 expressed in Sf9 cells assessed as reduction in substrate phosphorylation using biotin-ahx-ARKRERAYSFGHHA-amide substrate and [gamma-33P]ATP incubated for 40 mins by top count microplate scintillation counting method.
Assay [2] has as its target RAC-gamma serine/threonine-protein kinase (Homo sapiens, UniProt Q9Y243). The assay is described as follows: Inhibition of full length human AKT3 expressed in Sf9 cells assessed as reduction in substrate phosphorylation using biotin-ahx-ARKRERAYSFGHHA-amide substrate and [gamma-33P]ATP incubated for 40 mins by top count microplate scintillation counting method.

Chain of RAC-alpha serine/threonine-protein kinase (P31749 whole entry): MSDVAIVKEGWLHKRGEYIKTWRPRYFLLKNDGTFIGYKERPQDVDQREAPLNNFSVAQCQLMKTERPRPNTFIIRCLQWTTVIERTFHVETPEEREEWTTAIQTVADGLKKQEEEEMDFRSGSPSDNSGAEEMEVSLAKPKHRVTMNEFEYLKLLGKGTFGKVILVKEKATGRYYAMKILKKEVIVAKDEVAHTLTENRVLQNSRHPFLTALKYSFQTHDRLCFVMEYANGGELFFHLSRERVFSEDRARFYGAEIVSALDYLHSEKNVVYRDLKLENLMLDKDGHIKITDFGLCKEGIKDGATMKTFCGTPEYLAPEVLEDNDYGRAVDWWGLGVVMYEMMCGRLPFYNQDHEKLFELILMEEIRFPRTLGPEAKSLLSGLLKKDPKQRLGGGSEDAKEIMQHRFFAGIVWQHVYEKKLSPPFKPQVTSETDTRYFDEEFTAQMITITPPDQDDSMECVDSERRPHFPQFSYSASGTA
Chain of RAC-gamma serine/threonine-protein kinase (Q9Y243 whole entry): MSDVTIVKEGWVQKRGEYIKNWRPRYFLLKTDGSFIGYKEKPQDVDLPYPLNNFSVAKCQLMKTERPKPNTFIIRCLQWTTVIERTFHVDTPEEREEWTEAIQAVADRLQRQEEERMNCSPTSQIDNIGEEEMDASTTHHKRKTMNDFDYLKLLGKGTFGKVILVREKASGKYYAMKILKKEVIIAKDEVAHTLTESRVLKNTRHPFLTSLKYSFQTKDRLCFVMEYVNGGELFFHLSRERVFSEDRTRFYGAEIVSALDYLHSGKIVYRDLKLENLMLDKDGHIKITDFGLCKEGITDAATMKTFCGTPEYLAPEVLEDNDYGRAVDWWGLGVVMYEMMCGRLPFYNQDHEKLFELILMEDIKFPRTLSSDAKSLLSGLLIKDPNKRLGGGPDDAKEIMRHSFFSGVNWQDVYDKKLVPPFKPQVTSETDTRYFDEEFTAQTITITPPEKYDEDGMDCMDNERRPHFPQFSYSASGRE

Regarding `Cn1ncc(Br)c1-c1cc(C(=O)N[C@H](CN)Cc2ccccc2C(F)(F)F)sc1Cl`, the IC50 in assay [1] was ≤ 2.51 nM.

In the case of `Cn1ncc(Cl)c1-c1cc(C(=O)N[C@H](CN)Cc2ccccc2C(F)(F)F)sc1Cl`, the IC50 in assay [1] was ≤ 2.51 nM.

As for `CCn1ncc(Cl)c1-c1cc(C(=O)N[C@H](CN)Cc2ccc(F)c(F)c2)oc1Cl`, the IC50 in assay [1] was ≤ 2.51 nM.

As for `Cn1ncc(Cl)c1-c1cc(C(=O)N[C@H](CN)Cc2ccccc2C(F)(F)F)oc1Cl`, the half-inhibitory concentration (IC50) in assay [1] was ≤ 2.51 nM.

In the case of `Cn1ncc(Br)c1-c1cc(C(=O)N[C@H](CN)Cc2ccc(F)cc2)sc1Cl`, the IC50 in assay [1] was ≤ 2.51 nM.

For the compound `CCc1sc(C(=O)N[C@H](CN)Cc2cccc(F)c2)cc1-c1c(Cl)cnn1C`, the half-maximal inhibitory concentration (IC50) in assay [1] is ≤ 2.51 nM.

Take `Cn1ncc(Br)c1-c1cc(C(=O)N[C@H](CN)Cc2cccc(C(F)(F)F)c2)sc1Cl`: the 50% inhibitory concentration (IC50) in assay [1] was ≤ 2.51 nM.

Take `Cn1ncc(Br)c1-c1cc(C(=O)N[C@H](CN)Cc2cccc(F)c2)sc1Cl`: in assay [1], the 50% inhibitory concentration (IC50) was ≤ 2.51 nM.

As for `Cn1nccc1-c1cc(C(=O)N[C@H](CN)Cc2ccc(F)c(F)c2)oc1Cl`, in assay [1], the IC50 was ≤ 2.51 nM.

Regarding `CCn1ncc(Cl)c1-c1cc(C(=O)N[C@H](CN)Cc2ccc(F)cc2)sc1Cl`, the IC50 in assay [1] is ≤ 2.51 nM.

With `Cc1cnn(C)c1-c1cc(C(=O)N[C@H](CN)Cc2cccc(F)c2)sc1Cl`, the half-inhibitory concentration (IC50) in assay [1] is ≤ 2.51 nM.

Consider `Cn1nccc1-c1cc(C(=O)N[C@H](CN)Cc2cccc(F)c2)sc1Cl`, for which the IC50 in assay [1] was ≤ 2.51 nM.

For the compound `Cc1cnn(C)c1-c1cc(C(=O)N[C@H](CN)Cc2ccccc2C(F)(F)F)sc1Cl`, the half-maximal inhibitory concentration (IC50) in assay [1] is ≤ 2.51 nM.

Consider `Cn1ncc(Cl)c1-c1cc(C(=O)N[C@H](CN)Cc2ccc(F)c(F)c2)sc1Cl`, for which the IC50 in assay [2] is 3.16 to 25.1 nM; in assay [1], 1.58 to 2.51 nM.

For `COc1sc(C(=O)N[C@H](CN)Cc2cccc(F)c2)cc1-c1c(Cl)cnn1C`, the half-inhibitory concentration (IC50) in assay [1] is ≤ 2.51 nM.

Take `Cc1cnn(C)c1-c1cc(C(=O)N[C@H](CN)Cc2cccc(F)c2)oc1Cl`: the IC50 in assay [1] is ≤ 2.51 nM.

As to `CCn1ncc(Cl)c1-c1cc(C(=O)N[C@H](CN)Cc2ccc(F)c(F)c2)sc1Cl`, the half-maximal inhibitory concentration (IC50) in assay [1] is ≤ 2.51 nM.

The values above are taken from ChEMBL document CHEMBL3880416, “Inhibitors of AKT Activity” (2011).
